Experimental findings from US20250136570A1 (Tango Therapeutics, Inc., priority 2021, published 2025) are described below.

The structures appear in SMILES notation.

One test concerns the target Recombinant HDAC1 (Homo sapiens (Human), UniProt Q13547). Description: HDAC1 inhibition, Fluor de Lys fluorescent enzyme assay. The note with it: 3 hours pre-incubation at room temp; 6 nM enzyme; 16 μM Fluor de Lys substrate; duplicate. The test is classed as biochemical. An excerpt:
(§1) Recombinant HDAC1 (cat #: 50051) and HDAC3/NCor2 (cat #: 50003) enzymes were purchased from BPS Bioscience (San Diego, CA, US). Assay reagents for the detection of HDAC enzyme activity (Fluor de Lys®—Green substrate and Developer kits) were purchased from Enzo Life Science (Farmingdale, NY, US). Plates used to conduct the enzyme reaction were Proxiplate-384 (cat #: 6008280) Plus from PerkinElmer (Waltham, MA, US). TSA, an HDAC inhibitor, was purchased from Enzo Life Science (cat #BML-GR309-9090) The remainder of the reagents used to prepare the assay buffer were purchased from Sigma-Aldrich (St Louis, MO, US). Unless stated otherwise, HDAC1 and 3 assays were conducted in 50 mM Tris buffer, pH 8, 137 mM NaCl, 2.7 mM KCl, 0.01% BSA.
(§2) IC50 determination for HDAC1 and HDAC3—Prior to adding reagents, 50 nL/well of compound were added to Proxiplates using an Echo dispenser instrument (Beckman Coulter, CA, US). After addition of compound, 2.5 μL/well of 2× enzyme solution was added and the enzyme was pre-incubated with compound for 3 hours at room temp. (˜22° C.). After the pre-incubation period, the enzyme reaction was initiated by adding 2.5 μL/well of 2× Fluor de Lys® substrate solution. The assay reaction was stopped after one hour by adding 5 μl/well of a 0.66× Developer solution containing TSA (3.2 μM). The final product of the enzyme reaction was read using a Spectramax plate reader instrument (Molecular Devices, CA, US) using a fluorescent readout (Ex 360 nm/Em 460 nm). The final enzyme concentrations in the assay buffer for HDAC1 and 3 were 6 and 1.2 nM, respectively. The final Fluor de Lys® substrate concentration in the assay buffer was 16 μM for all HDAC enzymes. IC50 values were determined using the following equation: […]
(§3) Where Efree and Eo are the free and total amount of HDAC enzyme in the reaction mixture, n is the hill coefficient, I is the free inhibitor concentration, and IC50 is the measure of the potency equivalent to the inhibitor concentration that leads to a 50% occupancy of the total enzyme. Each data was generated in duplicate.

A further test concerns the target HDAC3/NCor2 (Homo sapiens (Human), UniProt O15379). Briefly: HDAC3 inhibition, Fluor de Lys fluorescent enzyme assay. The test is classed as biochemical. The note with it: 3 hours pre-incubation at room temp; 1.2 nM enzyme; 16 μM Fluor de Lys substrate; duplicate.
Text: as §1, §2, §3

Sequence of HDAC3/NCor2 (O15379 whole entry): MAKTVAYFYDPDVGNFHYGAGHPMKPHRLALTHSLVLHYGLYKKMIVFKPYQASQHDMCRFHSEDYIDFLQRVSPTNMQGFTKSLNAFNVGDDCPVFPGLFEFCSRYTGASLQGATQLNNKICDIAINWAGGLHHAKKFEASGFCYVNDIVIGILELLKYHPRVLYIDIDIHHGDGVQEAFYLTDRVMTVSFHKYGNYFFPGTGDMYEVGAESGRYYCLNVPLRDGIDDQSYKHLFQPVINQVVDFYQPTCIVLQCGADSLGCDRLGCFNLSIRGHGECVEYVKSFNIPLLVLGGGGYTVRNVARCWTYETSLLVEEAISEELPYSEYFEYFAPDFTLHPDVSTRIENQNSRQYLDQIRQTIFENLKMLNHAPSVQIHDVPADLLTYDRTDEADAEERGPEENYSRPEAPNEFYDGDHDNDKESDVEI
Sequence of HDAC3/NCor2 (Q9Y618 395-489 partner): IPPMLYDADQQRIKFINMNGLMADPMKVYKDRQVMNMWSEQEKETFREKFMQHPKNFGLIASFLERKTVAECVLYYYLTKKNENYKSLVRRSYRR
Sequence of Recombinant HDAC1 (Q13547 whole entry): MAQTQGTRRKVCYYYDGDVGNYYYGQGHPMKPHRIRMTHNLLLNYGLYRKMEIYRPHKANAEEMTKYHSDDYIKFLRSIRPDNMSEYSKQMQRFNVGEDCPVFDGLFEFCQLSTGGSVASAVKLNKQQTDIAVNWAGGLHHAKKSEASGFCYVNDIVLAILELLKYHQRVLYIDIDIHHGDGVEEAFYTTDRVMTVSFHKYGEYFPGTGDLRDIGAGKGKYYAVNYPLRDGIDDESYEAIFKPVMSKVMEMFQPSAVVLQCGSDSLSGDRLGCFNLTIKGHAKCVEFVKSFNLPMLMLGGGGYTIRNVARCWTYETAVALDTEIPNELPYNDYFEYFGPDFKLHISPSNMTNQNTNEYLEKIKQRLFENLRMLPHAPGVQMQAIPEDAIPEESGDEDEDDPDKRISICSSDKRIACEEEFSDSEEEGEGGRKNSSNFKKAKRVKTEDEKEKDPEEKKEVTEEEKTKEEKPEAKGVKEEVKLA

As a reminder, the IC50 is the concentration at which inhibition is half-maximal. For the molecule `CS(=N)(=O)Cc1ccc(C(=O)Nc2cc(-c3ccc(F)cc3)ccc2N)cc1` (stereo not drawn) [Compound 162, N-[2-amino-5-(4-fluorophenyl)phenyl]-4-[(methylsulfonimidoyl)methyl]benzamide], the IC50 at Recombinant HDAC1 was under 0.1 µM; on HDAC3/NCor2, 0.5 to 2 µM.
The corresponding values for `N=[S@](=O)(c1ccc(C(=O)Nc2cc(-c3ccc(F)cc3)ccc2N)cc1)C1CC1` (single isomer, unassigned) [Compound 145] are under 0.1 µM and 0.5 to 2 µM.
Turning to `N=S(=O)(c1ccc(C(=O)Nc2cc(-c3ccc(F)cc3)ccc2N)cc1)c1ccccn1` (stereo not drawn) [Compound 166, N-[2-amino-5-(4-fluorophenyl)phenyl]-4-(2-pyridylsulfonimidoyl)benzamide], the IC50 on Recombinant HDAC1 is under 0.1 µM; on HDAC3/NCor2, 0.5 to 2 µM.
With `N=S(=O)(c1ccc(C(=O)Nc2cc(-c3ccc(F)cc3)ccc2N)cn1)c1cnc[nH]1` (stereo not drawn) [Compound 219, N-[2-amino-5-(4-fluorophenyl)phenyl]-6-(1H-imidazol-5-ylsulfonimidoyl)pyridine-3-carboxamide], the IC50 on Recombinant HDAC1 is under 0.1 µM; at HDAC3/NCor2, 0.5 to 2 µM.
The corresponding values for `COc1ccncc1S(=N)(=O)c1ccc(C(=O)Nc2cc(-c3ccc(F)cc3)ccc2N)cc1` (stereo not drawn) [Compound 240, N-[2-amino-5-(4-fluorophenyl)phenyl]-4-[(4-methoxy-3-pyridyl)sulfonimidoyl]benzamide] are under 0.1 µM and 0.5 to 2 µM.
The matching figures for `CCN=S(C)(=O)c1ccc(C(=O)Nc2cc(-c3ccc(F)cc3)ccc2N)cn1` (stereo not drawn) [Compound 169, N-[2-amino-5-(4-fluorophenyl)phenyl]-6-(N-ethyl-S-methyl-sulfonimidoyl)pyridine-3-carboxamide]: under 0.1 µM and 0.5 to 2 µM.
Regarding `N=S(=O)(c1ccc(C(=O)Nc2cc(-c3ccc(F)cc3)ccc2N)cc1)c1cnccc1C1CC1` (stereo not drawn) [Compound 191, N-[2-amino-5-(4-fluorophenyl)phenyl]-4-[(4-cyclopropyl-3-pyridyl)sulfonimidoyl]benzamide], the IC50 is under 0.1 µM at Recombinant HDAC1 and 0.5 to 2 µM against HDAC3/NCor2.
The matching figures for `CS(=N)(=O)c1ccc(C(=O)Nc2cc(-c3ccc(F)s3)ccc2N)nn1` (stereo not drawn) [Compound 152, N-[2-amino-5-(5-fluoro-2-thienyl)phenyl]-6-(methylsulfonimidoyl)pyridazine-3-carboxamide]: under 0.1 µM and 0.1 to 0.5 µM.
The matching figures for `CS(=N)(=O)c1ccc(C(=O)Nc2cc(-c3ccc(F)s3)ccc2N)cc1` (stereo not drawn) [Compound 109, N-[2-amino-5-(5-fluoro-2-thienyl)phenyl]-4-(methylsulfonimidoyl)benzamide]: under 0.1 µM and 0.5 to 2 µM.
The corresponding values for `CS(=N)(=O)c1cc2ccc(C(=O)Nc3cc(-c4ccc(F)cc4)ccc3N)cc2o1` (stereo not drawn) [Compound 187, N-[2-amino-5-(4-fluorophenyl)phenyl]-2-(methylsulfonimidoyl)benzofuran-6-carboxamide] are under 0.1 µM and 0.5 to 2 µM.
`C[S@@](=N)(=O)c1ccc(C(=O)Nc2cc(-c3cccs3)ccc2N)cc1` (single isomer, unassigned) [Compound 105]: the IC50 is under 0.1 µM on Recombinant HDAC1 and 0.5 to 2 µM against HDAC3/NCor2.
The matching figures for `CS(=N)(=O)c1ccc(C(=O)Nc2cc(-c3cccnn3)ccc2N)cc1` (stereo not drawn) [Compound 157, N-(2-amino-5-pyridazin-3-yl-phenyl)-4-(methylsulfonimidoyl)benzamide]: under 0.1 µM and over 2 µM.
With `CS(=N)(=O)c1cc2sc(C(=O)Nc3cc(-c4ccc(F)cc4)ccc3N)cc2cn1` (stereo not drawn) [Compound 253, N-[2-amino-5-(4-fluorophenyl)phenyl]-6-(methylsulfonimidoyl)thieno[3,2-c]pyridine-2-carboxamide], the IC50 on Recombinant HDAC1 was under 0.1 µM; against HDAC3/NCor2 it was 0.5 to 2 µM.
The corresponding values for `COCCOCc1cncc(S(=N)(=O)c2ccc(C(=O)Nc3cc(-c4ccc(F)cc4)ccc3N)cc2)c1` (stereo not drawn) [Compound 193, N-[2-amino-5-(4-fluorophenyl)phenyl]-4-[[5-(2-methoxyethoxymethyl)-3-pyridyl]sulfonimidoyl]benzamide] are under 0.1 µM and over 2 µM.
The matching figures for `CCN=S(C)(=O)c1ccc2sc(C(=O)Nc3cc(-c4ccc(F)cc4)ccc3N)cc2c1` (stereo not drawn) [Compound 207, N-[2-amino-5-(4-fluorophenyl)phenyl]-5-(N-ethyl-S-methyl-sulfonimidoyl)benzothiophene-2-carboxamide]: under 0.1 µM and 0.5 to 2 µM.
The matching figures for `N=S(=O)(c1ccc(C(=O)Nc2cc(-c3ccc(F)cc3)ccc2N)cc1)C(F)(F)F` (stereo not drawn) [Compound 177, N-[2-amino-5-(4-fluorophenyl)phenyl]-4-(trifluoromethylsulfonimidoyl)benzamide]: under 0.1 µM and 0.5 to 2 µM.
Regarding `Cn1cncc1S(=N)(=O)c1ccc(C(=O)Nc2cc(-c3ccc(F)cc3)ccc2N)cc1` (stereo not drawn) [Compound 242, N-[2-amino-5-(4-fluorophenyl)phenyl]-4-[(3-methylimidazol-4-yl)sulfonimidoyl]benzamide], the IC50 at Recombinant HDAC1 is under 0.1 µM; on HDAC3/NCor2, 0.5 to 2 µM.
On to `CC(C)(C)OC(=O)N=S(=O)(c1ccc(C(=O)Nc2cc(-c3cccs3)ccc2NC(=O)OC(C)(C)C)cc1)C1CC1` (stereo not drawn) [Compound 112, tert-butyl N-[[4-[[2-(tert-butoxycarbonylamino)-5-(2-thienyl)phenyl]carbamoyl]phenyl]-cyclopropyl-oxo-sulfanylidene]carbamate], for which the IC50 on Recombinant HDAC1 and against HDAC3/NCor2 was over 2 µM throughout.
Regarding `N=S(=O)(c1ccc(C(=O)Nc2cc(-c3ccc(F)cc3)ccc2N)cc1)c1cnc(O)nc1` (stereo not drawn) [Compound 234, N-[2-amino-5-(4-fluorophenyl)phenyl]-4-[(2-hydroxypyrimidin-5-yl)sulfonimidoyl]benzamide], the results for the IC50 on Recombinant HDAC1 and at HDAC3/NCor2 were under 0.1 µM and over 2 µM, respectively.
Turning to `CS(=N)(=O)c1ccc2sc(C(=O)Nc3cc(-c4ccc(F)cc4)ccc3N)cc2n1` (stereo not drawn) [Compound 254, N-[2-amino-5-(4-fluorophenyl)phenyl]-5-(methylsulfonimidoyl)thieno[3,2-b]pyridine-2-carboxamide], the IC50 on Recombinant HDAC1 was under 0.1 µM; on HDAC3/NCor2 it was 0.1 to 0.5 µM.
The matching figures for `N=S(=O)(c1ccc(C(=O)Nc2cc(-c3ccc(F)cc3)ccc2N)cc1)c1cccnc1` (stereo not drawn) [Compound 172, N-[2-amino-5-(4-fluorophenyl)phenyl]-4-(3-pyridylsulfonimidoyl)benzamide]: under 0.1 µM and 0.5 to 2 µM.
The corresponding values for `CS(=N)(=O)c1ncc(C(=O)Nc2cc(-c3ccc(F)cc3)ccc2N)s1` (stereo not drawn) [Compound 164, N-[2-amino-5-(4-fluorophenyl)phenyl]-2-(methylsulfonimidoyl)thiazole-5-carboxamide] are 0.1 to 0.5 µM and 0.5 to 2 µM.
Take `N=S(=O)(c1ccc(C(=O)Nc2cc(-c3ccc(F)cc3)ccc2N)cn1)C1CC1` (stereo not drawn) [Compound 179, N-[2-amino-5-(4-fluorophenyl)phenyl]-6-(cyclopropylsulfonimidoyl)pyridine-3-carboxamide]: the IC50 on Recombinant HDAC1 is under 0.1 µM; against HDAC3/NCor2, 0.5 to 2 µM.
Consider `CS(=N)(=O)c1ccc(C(=O)Nc2cc(-c3ccccn3)ccc2N)cc1` (stereo not drawn) [Compound 119, N-[2-amino-5-(2-pyridyl)phenyl]-4-(methylsulfonimidoyl)benzamide], for which the IC50 at Recombinant HDAC1 is 0.1 to 0.5 µM; against HDAC3/NCor2 it was over 2 µM.
